This is an account of results in patent US20090124631A1, “Combination Therapy” (priority 2007, published 2009).

Experiment [1] has as its system anti-angiogenesis genes in colon adenocarcinoma HCT15 cells. The experiment is described as follows: Microarray analysis of anti-angiogenesis genes in HCT15 cells. The conditions noted are these: 1 μM, 24 h. Type of experiment: cell-based, human. How it is done:
RNA labeling, microarray hybridization, scanning and analysis were performed by Genotypics (India). RNAs were labeled with either Cy3 or Cy5 using Agilent's optimized labeling kits and hybridized to Human whole genome 44K Oligo Microarray. Array chips were ordered from Agilent (Palo Alto, Calif.). Slides were scanned using a DNA microarry scanner from Agilent and the raw data was extracted using Agilent's image analysis tool (feature extraction software). Normalization and Statistical analysis were performed using GeneSpring software. Biological analysis was performed using Biointerpreter software.
FIG. 4a indicates a list of selected genes with anti-angiogenesis function. The numbers indicate the fold induction in treated samples compared to non-treated samples (average of three biological replicates ±standard deviation).

Experiment [2] concerns MT3 transcription in human myeloma RPMI-8226 cells. The experiment is described as follows: MT3 transcription in RPMI-8226 cells, real time RT-PCR. The following applies: 24 hours. Type of experiment: cell-based. How it is done: (§1) Total RNAs were extracted from cell pellets or from tumors using QiaShredder and RNeasy mini kit (Qiagen). 1 μg RNA was converted into cDNA using Expand RT enzyme (Roche) and Oligo(dT) primers (Invitrogen) in a 20 μl reaction volume. For quantitative real-time PCR, the primers used for MT3 were [NT] and [NT] and those for β-actin were [NT] and [NT]. Reactions with either pair of primers included an annealing temperature of 63.4° C. All real-time PCR reactions were performed on the MasterCycler ep Realplex (Eppendorf) using FastStart SYBRGreen Master (Roche).
(Real-time PCR tracks product formation cycle by cycle.)

For experiment [3], the system named is H460 (NSCLC) xenografts. The experiment can be described thus: H460 (NSCLC) xenograft, oral HDAC inhibitor with taxol. The experiment is classed as in vivo, mouse. As for the experimental part: Antitumor studies were done using human H460 non-small cell lung tumor, Du145 prostate tumor, TSU-Pr1 prostate tumor, and AZ521 gastric tumor xenograft model in male BALBc/A nude mice (from Japan Crea Inc., Japan). Male nude mice were used at age 8-10 weeks. Human carcinoma cells were injected subcutaneously in the animal flank and allowed to form solid tumors. Tumor fragments (about 2 mm^3 fragments) were then removed and implanted subcutaneously through a small surgical incision to the right flank of other animals. […] Tumor volumes and gross body weight of animals were monitored twice weekly for up to 2 weeks for AZ-521 and TSU-Pr1, or 4 weeks for H460 and Du145 xenografts. Each experimental group contained 6 animals.

Experiment [4] concerns bFGF expression in A549 (NSCLC) xenografts. The experiment can be described thus: bFGF expression in A549 xenografts. The conditions noted are these: 150 mg/kg, p.o., qdx3. The experiment is classed as in vivo.
Experiment [5] deals with bFGF transcription in human prostate cancer Du145 cells. The experiment is described as follows: bFGF transcription in Du145 cells in vitro. The experiment is classed as cell-based. The conditions noted are these: 3 μM, 24 hour treatment. As for the experimental part:
Human prostate cancer Du145 cells were exposed to Cpd A or SAHA (3 microM) for 24 hours. Total RNA was collected by Isogen (Nippongene, Tokyo, Japan) and reverse-transcribed to cDNA by ExScript® RT reagent Kit (TAKARA, Kyoto, Japan). The expression level of bFGF mRNA was detected by ABI7700 analyzer using probe/primer pre-mixture reagent (ABI, Cat# Hs00266645_m1, CA, USA) and TaqMan® Universal PCR Master Mix (ABI, Cat# 430-4437) as described in the ABI's protocol. The expression level of VEGF mRNA was detected in a similar manner using the appropriate probe/primer reagents.

The subject of experiment [6] is MT3 transcription in human T-cell leukemia Jurkat-T cells. The experiment can be described thus: MT3 transcription in Jurkat-T cells, real time RT-PCR. Type of experiment: cell-based. The conditions noted are these: 24 hours. How it is done:
as §1

Experiment [7] concerns MT3 transcription in human colon cancer HCT15 cells. The experiment can be described thus: MT3 transcription in HCT15 cells, real time RT-PCR. Type of experiment: cell-based. The following applies: 1 uM. How it is done: as §1
The test system of experiment [8] is MT3 transcription in implanted H460 tumors. The experiment can be described thus: MT3 transcription in implanted H460 tumors in vivo. On the set-up: species or system mouse. The following applies: H460 tumors in mice, single dose 100 mg/kg po. How it is done: 6 hours or 24 hours post drug administration, mice were sacrificed and tumor excised and put in RNAlater (Ambion, Austin, Tex.) and stored at −70 C until RNAs were extracted using QiaShredder and RNeasy mini kit (Qiagen). For real time RT-PCR to determine MT3 transcription level, 1 μg RNA was converted into cDNA using Expand RT enzyme (Roche) and Oligo(dT) primers (Invitrogen) in a 20 μl reaction volume. For quantitative real-time PCR, the primers used for MT3 were 5′CCCTGCGGAGTGTGAGAAGT 3′ and 5′TGCTTCTGCCTCAGCTGCCT 3′ and those for β-actin were 5′CTCTTCCAGCCTTCCTTCCT 3′ and 5′AGCACTGTGTTGGCGTACAG 3′. Reactions with either pair of primers included an annealing temperature of 63.4° C. All real-time PCR reactions were performed on the MasterCycler ep Realplex (Eppendorf) using FastStart SYBRGreen Master (Roche).

The test system of experiment [9] is VEGF expression in A549 (NSCLC) xenografts. The experiment is described as follows: VEGF expression in A549 xenografts. The experiment is classed as in vivo. The conditions noted are these: 150 mg/kg, p.o., qdx3.
For experiment [10], the system named is TSP-1 expression in cancer cells (Du145, H460, A549). The experiment can be described thus: TSP-1 transcription in cancer cells in vitro. The experiment is classed as cell-based, human. The conditions noted are these: over time, 3 microM, 24 hours. How it is done:
Cells were exposed by Cpd A or SAHA (3 microM) for 24 hours. Total RNA was collected by Isogen (Nippongene, Tokyo, Japan) and reverse-transcribed to cDNA by ExScript® RT reagent Kit (TAKARA, Kyoto, Japan). The expression level of TSP-1 mRNA was detected by ABI7700 analyzer using a probe/primer pre-mixture reagent (ABI, Cat#, CA, USA) and TaqMan® Universal PCR Master Mix (ABI, Cat# 430-4437) as described in the ABI's protocol.

Experiment [11] has as its system human AZ521 gastric tumor xenograft. The experiment is described as follows: AZ521 gastric tumor xenograft, combination with taxol. Type of experiment: in vivo, mouse. The conditions noted are these: AZ521, Compound D 40 mg/kg oral daily 14 days with taxol 20 mg/kg i.v. As for the experimental part: Antitumor studies were done using human AZ521 gastric tumor xenograft model in male BALBc/A nude mice (from Japan Crea Inc., Japan). Male nude mice were used at age 8-10 weeks. Human carcinoma cells were injected subcutaneously in the animal flank and allowed to form solid tumors. Tumor fragments (about 2 mm^2 fragments) were then removed and implanted subcutaneously to the right flank of other animals. When the tumor sizes reached about 100 to 200 mm^3, recipient animals were treated Compound D (40 mg/kg, suspended with 0.5% HPMC) by oral administration alone, or taxol by i.v. injection (20 mg/kg), or combination of taxol with oral administration of Compound D. Typically, taxol was administered once per week by iv injection on the first day as a single administration, while Compound D was administered once daily for 14 days. Tumor volumes and gross body weight of animals were monitored twice weekly for up to 2 weeks. Each experimental group contained 6 animals.

“Also recorded” adds a separate entry of the source.

For `Nc1ccccc1NC(=O)c1ccc(CNc2nccc(-c3cccnc3)n2)cc1` [Compound A], the “transcription of anti-angiogenesis genes” value in experiment [1] is “affects several genes of the angiogenesis pathway; also recorded: induction”. The MT3 transcription result in [2] was “dose-dependent induction”; in experiment [6], “dose-dependent induction”; in experiment [7], “much more potent than SAHA”. The “tumor response to combination therapy with taxol” value in experiment [3] (Compound A 100 mg/kg or SAHA 120 mg/kg with taxol 60 mg/kg) is reported as “tumor regression”. The “anti-tumor effect of taxane (tumor volume)” value in experiment [3] (Compound A 100 mg/kg p.o. 3 times per week with taxol 60 mg/kg i.v. day 1) is “potentiation”. Further, the bFGF expression entry in [4] is listed as “suppression”. Besides, the bFGF transcription entry in experiment [5] was “more dramatic than by SAHA; also recorded: suppression”. The “MT3 transcription in tumors” value in experiment [8] is given as “induction”. In addition, in experiment [9], the VEGF expression entry is reported as “suppression”. Moreover, the TSP-1 expression result in experiment [10] is recorded as “induction”.

Consider `Nc1ccc(-c2ccccc2)cc1NC(=O)c1ccc(N2CC[C@H](N)C2)cc1` [Compound D], for which the “antitumor activity of taxol” value in [11] is reported as “Potentiation”.
